Reference: patent US10266577B2, “GLP-1 derivatives, and uses thereof” (Novo Nordisk A/S, priority 2013, dated 2019)
Square brackets hold non-standard residues; d marks the D form. Side chains are listed from the residue outwards. Peptide text beside a SMILES is read from it. * marks the point of attachment. Hexadecanoyl(16-SO3H) = O=C(CCCCCCCCCCCCCCCS(=O)(=O)O)*; Cya = N[C@@H](CS(=O)(=O)O)C(=O)O; Trx = NC[C@H]1CC[C@H](C(=O)O)CC1; AEEA = NCCOCCOCC(=O)O; Aib = CC(C)(N)C(=O)O

Assay: in vivo
Conditions: male, Göttingen, minipig, iv
Experimental: The purpose of this study is to determine the protraction in vivo of the GLP-1 derivatives after i.v. administration to minipigs, i.e. the prolongation of their time in the body and thereby their time of action. This is done in a pharmacokinetic (PK) study, where the terminal half-life of the derivative in question is determined. By terminal half-life is meant the time it takes to halve a certain plasma concentration in the terminal elimination phase.
Male Göttingen minipigs were obtained from Ellegaard Göttingen Minipigs (Dalmose, Denmark) approximately 7-14 months of age and weighing approximately 16-35 kg were used in the studies. The minipigs were housed either individually (pigs with permanent catheters) or in a group and fed restrictedly once or twice daily with SDS minipig diet (Special Diets Services, Essex, UK).
After at least 2 weeks of acclimatisation two permanent central venous catheters were implanted in vena cava caudalis or cranialis in each animal. The animals were allowed 1 week recovery after the surgery, and were then used for repeated pharmacokinetic studies with a suitable wash-out period between successive GLP-1 derivative dosings.
Blood samples (for example 0.8 ml) were collected in EDTA buffer (8 mM) and then centrifuged at 4° C. and 1942G for 10 minutes.
Plasma was pipetted into Micronic tubes on dry ice, and kept at −20° C. until analysed for plasma concentration of the respective GLP-1 compound using LOCI. Individual plasma concentration-time profiles were analyzed by a non-compartmental pharmacokinetic method in Phoenix v. 6.2 (Pharsight Inc., Mountain View, Calif., USA), or other relevant software for PK analysis, and the resulting terminal half-lives (harmonic mean) determined.

| half-life [days] | Compound |
| --- | --- |
| 5.75 | CC[C@H](C)[C@H](NC(=O)[C@H](Cc1ccccc1)NC(=O)[C@H](CCC(=O)O)NC(=O)[C@H](CCCCNC(=O)[C@H](CO)NC(=O)[C@H](CO)NC(=O)[C@H](CO)NC(=O)[C@H](CO)NC(=O)[C@H](CO)NC(=O)[C@H](CO)NC(=O)CC[C@H](NC(=O)CCCCCCCCCCCCCCCCC(=O)O)C(=O)O)NC(=O)[C@H](C)NC(=O)[C@H](C)NC(=O)[C@H](CCC(N)=O)NC(=O)CNC(=O)[C@H](CCC(=O)O)NC(=O)[C@H](CC(C)C)NC(=O)[C@H](Cc1ccc(O)cc1)NC(=O)[C@H](CCCCNC(=O)[C@H](CO)NC(=O)[C@H](CO)NC(=O)[C@H](CO)NC(=O)[C@H](CO)NC(=O)[C@H](CO)NC(=O)[C@H](CO)NC(=O)CC[C@H](NC(=O)CCCCCCCCCCCCCCCCC(=O)O)C(=O)O)NC(=O)[C@H](CO)NC(=O)[C@@H](NC(=O)[C@H](CC(=O)O)NC(=O)[C@H](CO)NC(=O)[C@@H](NC(=O)[C@H](Cc1ccccc1)NC(=O)[C@@H](NC(=O)CNC(=O)[C@H](CCC(=O)O)NC(=O)C(C)(C)NC(=O)[C@@H](N)Cc1c[nH]cn1)[C@@H](C)O)[C@@H](C)O)C(C)C)C(=O)N[C@@H](C)C(=O)N[C@@H](Cc1c[nH]c2ccccc12)C(=O)N[C@@H](CC(C)C)C(=O)N[C@H](C(=O)N[C@@H](CCCNC(=N)N)C(=O)NCC(=O)N[C@@H](CCCNC(=N)N)C(=O)N[C@@H](CCCCNC(=O)[C@H](CO)NC(=O)[C@H](CO)NC(=O)[C@H](CO)NC(=O)[C@H](CO)NC(=O)[C@H](CO)NC(=O)[C@H](CO)NC(=O)CC[C@H](NC(=O)CCCCCCCCCCCCCCCCC(=O)O)C(=O)O)C(=O)O)C(C)C [Example 8] |
| 5 | CC[C@H](C)[C@H](NC(=O)[C@H](Cc1ccccc1)NC(=O)[C@H](CCC(=O)O)NC(=O)[C@H](CCCCNC(=O)[C@@H](N)CCCCNC(=O)[C@H](CO)NC(=O)[C@H](CO)NC(=O)[C@H](CO)NC(=O)[C@H](CO)NC(=O)[C@H](CO)NC(=O)CC[C@H](NC(=O)CCCCCCCCCCCCCCCCC(=O)O)C(=O)O)NC(=O)[C@H](C)NC(=O)[C@H](C)NC(=O)[C@H](CCC(N)=O)NC(=O)CNC(=O)[C@H](CCC(=O)O)NC(=O)[C@H](CC(C)C)NC(=O)[C@H](Cc1ccc(O)cc1)NC(=O)[C@H](CCCCNC(=O)[C@@H](N)CCCCNC(=O)[C@H](CO)NC(=O)[C@H](CO)NC(=O)[C@H](CO)NC(=O)[C@H](CO)NC(=O)[C@H](CO)NC(=O)CC[C@H](NC(=O)CCCCCCCCCCCCCCCCC(=O)O)C(=O)O)NC(=O)[C@H](CO)NC(=O)[C@@H](NC(=O)[C@H](CC(=O)O)NC(=O)[C@H](CO)NC(=O)[C@@H](NC(=O)[C@H](Cc1ccccc1)NC(=O)[C@@H](NC(=O)CNC(=O)[C@H](CCC(=O)O)NC(=O)C(C)(C)NC(=O)[C@@H](N)Cc1c[nH]cn1)[C@@H](C)O)[C@@H](C)O)C(C)C)C(=O)N[C@@H](C)C(=O)N[C@@H](Cc1c[nH]c2ccccc12)C(=O)N[C@@H](CC(C)C)C(=O)N[C@H](C(=O)N[C@@H](CCCNC(=N)N)C(=O)NCC(=O)N[C@@H](CCCNC(=N)N)C(=O)N[C@@H](CCCCNC(=O)[C@@H](N)CCCCNC(=O)[C@H](CO)NC(=O)[C@H](CO)NC(=O)[C@H](CO)NC(=O)[C@H](CO)NC(=O)[C@H](CO)NC(=O)CC[C@H](NC(=O)CCCCCCCCCCCCCCCCC(=O)O)C(=O)O)C(=O)O)C(C)C [Example 3] |
| 5 | CC[C@H](C)[C@H](NC(=O)[C@H](Cc1ccccc1)NC(=O)[C@H](CCC(=O)O)NC(=O)[C@H](CCCNC(=N)N)NC(=O)[C@H](C)NC(=O)[C@H](C)NC(=O)[C@H](CCC(N)=O)NC(=O)[C@H](CCCCNC(=O)COCCOCCNC(=O)COCCOCCNC(=O)[C@H](CS(=O)(=O)O)NC(=O)[C@H]1CC[C@H](CNC(=O)CCCCCCCCCCCCCCCS(=O)(=O)O)CC1)NC(=O)[C@H](CCC(=O)O)NC(=O)[C@H](CC(C)C)NC(=O)[C@H](Cc1ccc(O)cc1)NC(=O)[C@H](CCCCNC(=O)COCCOCCNC(=O)COCCOCCNC(=O)[C@H](CS(=O)(=O)O)NC(=O)[C@H]1CC[C@H](CNC(=O)CCCCCCCCCCCCCCCS(=O)(=O)O)CC1)NC(=O)[C@H](CO)NC(=O)[C@@H](NC(=O)[C@H](CC(=O)O)NC(=O)[C@H](CO)NC(=O)[C@@H](NC(=O)[C@H](Cc1ccccc1)NC(=O)[C@@H](NC(=O)CNC(=O)[C@H](CCC(=O)O)NC(=O)C(C)(C)NC(=O)[C@@H](N)Cc1c[nH]cn1)[C@@H](C)O)[C@@H](C)O)C(C)C)C(=O)N[C@@H](CCCCNC(=O)COCCOCCNC(=O)COCCOCCNC(=O)[C@H](CS(=O)(=O)O)NC(=O)[C@H]1CC[C@H](CNC(=O)CCCCCCCCCCCCCCCS(=O)(=O)O)CC1)C(=O)N[C@@H](Cc1c[nH]c2ccccc12)C(=O)N[C@@H](CC(C)C)C(=O)N[C@H](C(=O)N[C@@H](CCCNC(=N)N)C(=O)NCC(=O)N[C@@H](CCCNC(=N)N)C(=O)NCC(=O)O)C(C)C [Example 4] (H-H[Aib]EGTFTSDVSK([AEEA-AEEA-Cya-Trx-Hexadecanoyl(16-SO3H)])YLEK([AEEA-AEEA-Cya-Trx-Hexadecanoyl(16-SO3H)])QAAREFIK([AEEA-AEEA-Cya-Trx-Hexadecanoyl(16-SO3H)])WLVRGRG-OH; N-terminus and C-terminus assumed) |
| 4.62 | CC[C@H](C)[C@H](NC(=O)[C@H](Cc1ccccc1)NC(=O)[C@H](CCC(=O)O)NC(=O)[C@H](CCCCNC(=O)[C@@H](N)CCCCNC(=O)COCCOCCNC(=O)COCCOCCNC(=O)[C@H](CS(=O)(=O)O)NC(=O)CCCCCCCCCCCCCCCS(=O)(=O)O)NC(=O)[C@H](C)NC(=O)[C@H](C)NC(=O)[C@H](CCC(N)=O)NC(=O)[C@H](CCC(=O)O)NC(=O)[C@H](CCC(=O)O)NC(=O)[C@H](CC(C)C)NC(=O)[C@H](Cc1ccc(O)cc1)NC(=O)[C@H](CO)NC(=O)[C@H](CO)NC(=O)[C@@H](NC(=O)[C@H](CC(=O)O)NC(=O)[C@H](CO)NC(=O)[C@@H](NC(=O)[C@H](Cc1ccccc1)NC(=O)[C@@H](NC(=O)CNC(=O)[C@H](CCC(=O)O)NC(=O)C(C)(C)NC(=O)[C@@H](N)Cc1c[nH]cn1)[C@@H](C)O)[C@@H](C)O)C(C)C)C(=O)N[C@@H](CCCCNC(=O)[C@@H](N)CCCCNC(=O)COCCOCCNC(=O)COCCOCCNC(=O)[C@H](CS(=O)(=O)O)NC(=O)CCCCCCCCCCCCCCCS(=O)(=O)O)C(=O)N[C@@H](Cc1c[nH]c2ccccc12)C(=O)N[C@@H](CC(C)C)C(=O)N[C@H](C(=O)N[C@@H](CCCNC(=N)N)C(=O)NCC(=O)N[C@@H](CCCNC(=N)N)C(=O)N[C@@H](CCCCNC(=O)[C@@H](N)CCCCNC(=O)COCCOCCNC(=O)COCCOCCNC(=O)[C@H](CS(=O)(=O)O)NC(=O)CCCCCCCCCCCCCCCS(=O)(=O)O)C(=O)O)C(C)C [Example 12] |
